For this assay, the target named is T1, Coproheme decarboxylase (Staphylococcus aureus, UniProt Q2YS77).
T1 sequence (Q2YS77 whole entry): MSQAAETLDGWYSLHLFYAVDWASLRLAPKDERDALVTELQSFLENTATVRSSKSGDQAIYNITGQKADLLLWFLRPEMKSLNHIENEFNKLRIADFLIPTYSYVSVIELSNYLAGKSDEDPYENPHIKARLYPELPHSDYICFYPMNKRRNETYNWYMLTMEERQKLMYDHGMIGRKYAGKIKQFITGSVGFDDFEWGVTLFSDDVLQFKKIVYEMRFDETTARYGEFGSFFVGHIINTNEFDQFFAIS
As to the kind of experiment: Fluorescence Titration Assay. To be noted: pH 6.8. Here is the method: Titrations using fluorescence spectroscopy were carried out on a Jobin Yvon Horiba FluoroMax-3 fluorimeter in scanning mode. Apo-HemQ (5 μM) was diluted in 0.1 M potassium phosphate buffer, pH 6.8, and titrated with stocks of heme (1 mM in0.1 M NaOH) and protoporphyrin IX (1 mM in DMSO) each diluted to 500 μM at 25 °C.

`C=Cc1c(C)c2cc3[nH]c(cc4nc(cc5nc(cc1[nH]2)C(C)=C5CCC(=O)O)C(CCC(=O)O)=C4C)c(C)c3C=C` displayed a Kd of 2.21 µM.

As usually defined, the Kd is the constant that tells how readily two partners part at equilibrium. Lower therefore signals a tighter complex.

These data come from BindingDB's records for doi:10.1074/jbc.M112.442335 (University of Notre Dame, 2013).
